Test results reported in US11180462B2, “Microbiocidal oxadiazole derivatives” (SYNGENTA PARTICIPATIONS AG, priority 2015, dated 2021).

What was measured:
[1] = system: Glomerella lagenarium (Colletotrichum lagenarium); test: Fungicidal activity against Glomerella lagenarium (Colletotrichum lagenarium) liquid culture / cucumber / preventative (anthracnose); format: cell-based; conditions: Colletotrichum orbiculare; 20 ppm in the applied formulation; liquid culture (PDB), growth inhibition measured photometrically after 3 to 4 days; compared to untreated control; read-out: disease control
How it was run: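 Photometric read-out of fungal growth after 2–7 days, expressed as percent antifungal activity versus untreated check. Cryo-stored conidia in PDB; compound at 20 ppm; dark, 24 °C, 96% RH.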

[2] = system: Puccinia recondita f. Sp. Tritici; test: Fungicidal activity against Puccinia recondita f. sp. tritici / wheat / leaf disc curative (brown rust); format: in vivo; conditions: foliar, 24 h, 200 ppm in the applied formulation, wheat leaf segments, curative (applied 1 day after inoculation), compared to untreated control leaf disks, read-out: disease control
How it was run: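 Inoculate cv. Kanzler segments on agar; hold dark, 19° C, 75% RH. Spray diluted formulated compound at day 1. Incubate 12 h light/12 h dark, same temperature and humidity; score % control vs untreated 6–8 days later.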

[3] = system: Puccinia recondita f. Sp. Tritici; test: Fungicidal activity against Puccinia recondita f. sp. tritici / wheat / leaf disc preventative (brown rust); format: in vivo; conditions: foliar, 200 ppm in the applied formulation, wheat leaf segments, preventative, compared to untreated control leaf disks, read-out: disease control
How it was run: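 Preventative leaf-segment test, wheat cv. Kanzler on water agar. Spray compound at 200 ppm, inoculate with spores 1 day later; 19° C., 75% rh, 12/12 h light. Read-out: % disease control vs untreated, 7 to 9 days after application.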

COCCOCC(=O)N(CCOC)Cc1ccc(-c2noc(C(F)(F)F)n2)cc1 [Compound 1.340, 2-(2-methoxyethoxy)-N-(2-methoxyethyl)-N-[[4-[5-(trifluoromethyl)-1,2,4-oxadiazol-3-yl]phenyl]methyl]-acetamide]
≥ 80%: inhibition of growth at 20 ppm [1] | pest or weed control at 200 ppm [2] | pest or weed control at 200 ppm [3]

COC(=O)N(Cc1ccc(-c2noc(C(F)(F)F)n2)cc1)CC(F)(F)F [Compound 2.22, methyl N-(2,2,2-trifluoroethyl)-N-[[4-[5-(trifluoromethyl)-1,2,4-oxadiazol-3-yl]phenyl]methyl]-carbamate]
≥ 80%: inhibition of growth at 20 ppm [1] | pest or weed control at 200 ppm [2] | pest or weed control at 200 ppm [3]

CC=C(C)C(=O)N(Cc1ccc(-c2noc(C(F)(F)F)n2)cc1)C(C)CC (stereo not drawn) [Compound 1.374, 2-methyl-N-sec-butyl-N-[[4-[5-(trifluoromethyl)-1,2,4-oxadiazol-3-yl]phenyl]methyl]but-2-enamide]
≥ 80%: inhibition of growth at 20 ppm [1] | pest or weed control at 200 ppm [2] | pest or weed control at 200 ppm [3]

CC=CC(=O)N(CCOC)Cc1ccc(-c2noc(C(F)(F)F)n2)cc1 [Compound 1.326, N-(2-methoxyethyl)-N-[[4-[5-(trifluoromethyl)-1,2,4-oxadiazol-3-yl]phenyl]methyl]but-2-enamide]
≥ 80%: inhibition of growth at 20 ppm [1] | pest or weed control at 200 ppm [2] | pest or weed control at 200 ppm [3]

C#CCOc1ccc(C(=O)N(Cc2ccc(-c3noc(C(F)(F)F)n3)cc2)C2CC2)cc1F [Compound 1.129, N-cyclopropyl-3-fluoro-4-prop-2-ynoxy-N-[[4-[5-(trifluoromethyl)-1,2,4-oxadiazol-3-yl]phenyl]methyl]-benzamide]
≥ 80%: inhibition of growth at 20 ppm [1] | pest or weed control at 200 ppm [2] | pest or weed control at 200 ppm [3]

CCCN(C)C(=O)N(CC)Cc1ccc(-c2noc(C(F)(F)F)n2)cc1 [Compound 3.94, 1-ethyl-3-methyl-3-propyl-1-[[4-[5-(trifluoromethyl)-1,2,4-oxadiazol-3-yl]phenyl]methyl]urea]
≥ 80%: inhibition of growth at 20 ppm [1] | pest or weed control at 200 ppm [2] | pest or weed control at 200 ppm [3]

CON(C(=O)C1CC1)C(C)c1ccc(-c2noc(C(F)(F)F)n2)cc1 (stereo not drawn) [Compound 1.279, N-methoxy-N-[1-[4-[5-(trifluoromethyl)-1,2,4-oxadiazol-3-yl]phenyl]ethyl]-cyclopropane-carboxamide]
≥ 80%: inhibition of growth at 20 ppm [1] | pest or weed control at 200 ppm [2] | pest or weed control at 200 ppm [3]

CC=C(C)C(=O)N(Cc1ccc(-c2noc(C(F)(F)F)n2)cc1)CC1CCCO1 (stereo not drawn) [Compound 1.417, 2-methyl-N-(tetrahydrofuran-2-ylmethyl)-N-[[4-[5-(trifluoromethyl)-1,2,4-oxadiazol-3-yl]phenyl]methyl]but-2-enamide]
≥ 80%: inhibition of growth at 20 ppm [1] | pest or weed control at 200 ppm [2] | pest or weed control at 200 ppm [3]

O=C(c1cccc2nnsc12)N(Cc1ccc(-c2noc(C(F)(F)F)n2)cc1)C1CC1 [Compound 1.139, N-cyclopropyl-N-[[4-[5-(trifluoromethyl)-1,2,4-oxadiazol-3-yl]phenyl]methyl]-1,2,3-benzothiadiazole-7-carboxamide]
≥ 80%: inhibition of growth at 20 ppm [1] | pest or weed control at 200 ppm [2] | pest or weed control at 200 ppm [3]

CON(Cc1ccc(-c2noc(C(F)(F)F)n2)cc1)C(=O)NCC(C)(C)C [Compound 3.10, 3-(2,2-dimethylpropyl)-1-methoxy-1-[[4-[5-(trifluoromethyl)-1,2,4-oxadiazol-3-yl]phenyl]methyl]urea]
≥ 80%: inhibition of growth at 20 ppm [1] | pest or weed control at 200 ppm [2] | pest or weed control at 200 ppm [3]

CN(CC#N)C(=O)N(C)Cc1ccc(-c2noc(C(F)(F)F)n2)cc1 [Compound 3.70, 1-(cyanomethyl)-1,3-dimethyl-3-[[4-[5-(trifluoromethyl)-1,2,4-oxadiazol-3-yl]phenyl]methyl]urea]
≥ 80%: inhibition of growth at 20 ppm [1] | pest or weed control at 200 ppm [2] | pest or weed control at 200 ppm [3]

CCN(Cc1ccc(-c2noc(C(F)(F)F)n2)cc1)C(=O)N(C)C(C)C [Compound 3.98, 1-ethyl-3-isopropyl-3-methyl-1-[[4-[5-(trifluoromethyl)-1,2,4-oxadiazol-3-yl]phenyl]methyl]urea]
≥ 80%: inhibition of growth at 20 ppm [1] | pest or weed control at 200 ppm [2] | pest or weed control at 200 ppm [3]

O=C(Cc1ccc(Cl)cc1)N(Cc1ccc(-c2noc(C(F)(F)F)n2)cc1)C1CC1 [Compound 1.127, 2-(4-chlorophenyl)-N-cyclopropyl-N-[[4-[5-(trifluoromethyl)-1,2,4-oxadiazol-3-yl]phenyl]methyl]-acetamide]
≥ 80%: inhibition of growth at 20 ppm [1] | pest or weed control at 200 ppm [2] | pest or weed control at 200 ppm [3]

CN(Cc1ccc(-c2noc(C(F)(F)F)n2)cc1)C(=O)N1CCCC1 [Compound 3.74, N-methyl-N-[[4-[5-(trifluoromethyl)-1,2,4-oxadiazol-3-yl]phenyl]methyl]-pyrrolidine-1-carboxamide]
≥ 80%: inhibition of growth at 20 ppm [1] | pest or weed control at 200 ppm [2] | pest or weed control at 200 ppm [3]

COCCOCC(=O)N(Cc1ccc(-c2noc(C(F)(F)F)n2)cc1)CC1CCCO1 (stereo not drawn) [Compound 1.427, 2-(2-methoxyethoxy)-N-(tetrahydrofuran-2-ylmethyl)-N-[[4-[5-(trifluoromethyl)-1,2,4-oxadiazol-3-yl]phenyl]methyl]-acetamide]
≥ 80%: inhibition of growth at 20 ppm [1] | pest or weed control at 200 ppm [2] | pest or weed control at 200 ppm [3]

CCN(Cc1ccc(-c2noc(C(F)(F)F)n2)cc1)C(=O)CNC(C)=O [Compound 1.501, 2-acetamido-N-ethyl-N-[[4-[5-(trifluoromethyl)-1,2,4-oxadiazol-3-yl]phenyl]methyl]-acetamide]
≥ 80%: inhibition of growth at 20 ppm [1] | pest or weed control at 200 ppm [2] | pest or weed control at 200 ppm [3]

CC=CC(=O)N(Cc1ccc(-c2noc(C(F)(F)F)n2)cc1)C(C)CC (stereo not drawn) [Compound 1.370, N-sec-butyl-N-[[4-[5-(trifluoromethyl)-1,2,4-oxadiazol-3-yl]phenyl]methyl] but-2-enamide]
≥ 80%: inhibition of growth at 20 ppm [1] | pest or weed control at 200 ppm [2] | pest or weed control at 200 ppm [3]

CN(Cc1ccc(-c2noc(C(F)(F)F)n2)cc1)C(=O)N(C)CC1CC1 [Compound 3.83, 1-(cyclopropylmethyl)-1,3-dimethyl-3-[[4-[5-(trifluoromethyl)-1,2,4-oxadiazol-3-yl]phenyl]methyl]urea]
≥ 80%: inhibition of growth at 20 ppm [1] | pest or weed control at 200 ppm [2] | pest or weed control at 200 ppm [3]

CCOCC(=O)N(Cc1ccc(-c2noc(C(F)(F)F)n2)cc1)CC1CCCO1 (stereo not drawn) [Compound 1.426, 2-ethoxy-N-(tetrahydrofuran-2-ylmethyl)-N-[[4-[5-(trifluoromethyl)-1,2,4-oxadiazol-3-yl]phenyl]methyl]-acetamide]
≥ 80%: inhibition of growth at 20 ppm [1] | pest or weed control at 200 ppm [2] | pest or weed control at 200 ppm [3]

CCN(Cc1ccc(-c2noc(C(F)(F)F)n2)cc1)C(=O)N(C)C1COC1 [Compound 3.91, 1-ethyl-3-methyl-3-(oxetan-3-yl)-1-[[4-[5-(trifluoromethyl)-1,2,4-oxadiazol-3-yl]phenyl]methyl]urea]
≥ 80%: inhibition of growth at 20 ppm [1] | pest or weed control at 200 ppm [2] | pest or weed control at 200 ppm [3]

C#CC(=O)N(Cc1ccc(-c2noc(C(F)(F)F)n2)cc1)CC1CCCO1 (stereo not drawn) [Compound 1.434, N-(tetrahydrofuran-2-ylmethyl)-N-[[4-[5-(trifluoromethyl)-1,2,4-oxadiazol-3-yl]phenyl]methyl] prop-2-ynamide]
≥ 80%: inhibition of growth at 20 ppm [1] | pest or weed control at 200 ppm [2] | pest or weed control at 200 ppm [3]

N#CC1(C(=O)N(Cc2ccc(-c3noc(C(F)(F)F)n3)cc2)CC2CCCO2)CC1 (stereo not drawn) [Compound 1.443, 1-cyano-N-(tetrahydrofuran-2-ylmethyl)-N-[[4-[5-(trifluoromethyl)-1,2,4-oxadiazol-3-yl]phenyl]methyl]-cyclopropane-carboxamide]
≥ 80%: inhibition of growth at 20 ppm [1] | pest or weed control at 200 ppm [2] | pest or weed control at 200 ppm [3]

COCCC(=O)N(Cc1ccc(-c2noc(C(F)(F)F)n2)cc1)Cc1ccco1 [Compound 1.456, N-(2-furylmethyl)-3-methoxy-N-[[4-[5-(trifluoromethyl)-1,2,4-oxadiazol-3-yl]phenyl]methyl]-propanamide]
≥ 80%: inhibition of growth at 20 ppm [1] | pest or weed control at 200 ppm [2] | pest or weed control at 200 ppm [3]

CON(Cc1ccc(-c2noc(C(F)(F)F)n2)cc1)C(=O)N(C)C1CCC1 [Compound 3.65, 1-cyclobutyl-3-methoxy-1-methyl-3-[[4-[5-(trifluoromethyl)-1,2,4-oxadiazol-3-yl]phenyl]methyl]urea]
≥ 80%: inhibition of growth at 20 ppm [1] | pest or weed control at 200 ppm [2] | pest or weed control at 200 ppm [3]

COCCN(Cc1ccc(-c2noc(C(F)(F)F)n2)cc1)C(=O)C1=CCCC1 [Compound 1.333, N-(2-methoxyethyl)-N-[[4-[5-(trifluoromethyl)-1,2,4-oxadiazol-3-yl]phenyl]methyl]-cyclopentene-1-carboxamide]
≥ 80%: inhibition of growth at 20 ppm [1] | pest or weed control at 200 ppm [2] | pest or weed control at 200 ppm [3]
